The target of assay [1] is T1, TBK1 (Homo sapiens, UniProt Q9UHD2).
T1 construct: TBK1 and IKKε were expressed and purified as full length recombinant proteins; made in house
T1 sequence (Q9UHD2 1-729): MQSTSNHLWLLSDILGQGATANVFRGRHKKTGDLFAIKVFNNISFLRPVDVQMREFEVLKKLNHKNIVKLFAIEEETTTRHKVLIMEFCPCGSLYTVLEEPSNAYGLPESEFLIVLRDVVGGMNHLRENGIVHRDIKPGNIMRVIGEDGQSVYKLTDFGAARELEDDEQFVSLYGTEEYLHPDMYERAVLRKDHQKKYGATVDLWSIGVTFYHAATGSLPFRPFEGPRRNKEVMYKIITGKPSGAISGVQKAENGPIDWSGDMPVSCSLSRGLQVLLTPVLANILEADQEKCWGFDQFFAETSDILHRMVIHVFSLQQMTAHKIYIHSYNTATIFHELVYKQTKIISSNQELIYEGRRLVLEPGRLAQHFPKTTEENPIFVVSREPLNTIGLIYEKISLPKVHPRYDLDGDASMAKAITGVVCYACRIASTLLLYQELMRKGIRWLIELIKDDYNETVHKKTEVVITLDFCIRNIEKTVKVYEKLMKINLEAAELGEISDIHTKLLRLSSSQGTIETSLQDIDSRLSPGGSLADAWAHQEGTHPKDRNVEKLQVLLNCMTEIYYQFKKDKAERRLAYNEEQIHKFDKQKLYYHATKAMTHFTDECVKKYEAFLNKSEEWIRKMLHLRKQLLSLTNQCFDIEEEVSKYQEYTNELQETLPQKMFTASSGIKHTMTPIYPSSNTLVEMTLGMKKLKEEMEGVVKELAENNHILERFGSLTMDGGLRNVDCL
Description: TR-FRET enzymatic activity assay, TBK1. Also: full length recombinant TBK1 at 2.5 nM. It is filed as biochemical. The method in brief: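 Full-length recombinant enzymes phosphorylated a biotinylated Ser/Thr peptide for 240 min at 25 °C, stopped with EDTA. Phosphopeptide detected by TR-FRET (streptavidin XL665, Eu-cryptate anti-phospho antibody). IC50 from four-parameter fits normalized to 1 μM staurosporine and DMSO controls, as geometric means of at least four determinations.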
In general terms: Time-resolved FRET reads energy transfer from a long-lived donor to a nearby acceptor.

Assay [2] deals with T2, IKKε (Homo sapiens, UniProt Q14164).
T2 construct: TBK1 and IKKε were expressed and purified as full length recombinant proteins; made in house
T2 sequence (Q14164 1-716): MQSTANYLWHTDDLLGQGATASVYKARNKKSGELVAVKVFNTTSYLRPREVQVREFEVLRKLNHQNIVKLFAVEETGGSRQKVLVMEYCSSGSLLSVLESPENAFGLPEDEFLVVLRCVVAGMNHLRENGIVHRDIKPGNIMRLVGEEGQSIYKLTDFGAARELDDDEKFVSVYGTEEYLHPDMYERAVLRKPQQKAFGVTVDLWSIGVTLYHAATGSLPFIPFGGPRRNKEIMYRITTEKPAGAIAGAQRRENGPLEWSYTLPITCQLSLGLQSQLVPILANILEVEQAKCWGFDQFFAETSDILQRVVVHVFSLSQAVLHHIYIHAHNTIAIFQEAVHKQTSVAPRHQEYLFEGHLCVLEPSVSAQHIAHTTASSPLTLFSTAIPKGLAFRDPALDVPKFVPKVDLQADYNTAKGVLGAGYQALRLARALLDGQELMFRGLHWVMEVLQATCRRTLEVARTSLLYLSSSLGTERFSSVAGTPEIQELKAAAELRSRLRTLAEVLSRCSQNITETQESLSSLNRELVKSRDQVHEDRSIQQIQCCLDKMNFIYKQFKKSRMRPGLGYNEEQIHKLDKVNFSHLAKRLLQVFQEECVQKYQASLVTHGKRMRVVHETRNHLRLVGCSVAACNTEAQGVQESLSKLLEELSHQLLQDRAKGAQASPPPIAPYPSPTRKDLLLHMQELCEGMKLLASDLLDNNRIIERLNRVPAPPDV
In words: TR-FRET enzymatic activity assay, IKKε. Also: full length recombinant IKKε at 0.3 nM. The following applies: read-out: IKKϵ IC50. Type of assay: biochemical. The method in brief: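 Full-length recombinant IKKε phosphorylated a biotinylated Ser/Thr peptide for 240 min at 25 °C; EDTA stop. Phospho-peptide detected by TR-FRET with streptavidin-XL665 (125 nM) and Eu-cryptate anti-phospho antibody. Normalised to staurosporine and DMSO controls; IC50 from four-parameter fit, geometric mean of ≥4 runs.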

Molecules are shown by their SMILES. A value given as a limit tells only on which side of the number the result lay.

A word on the IC50: it is the concentration that inhibits the measured activity by half. With `C[C@@H]1C[C@H]1C(=O)Nc1cc(-c2ccc(O[C@H]3CCN(C(=O)CO)C[C@H]3F)c(C#N)c2)ccn1` [Example 72, (1R,2R)—N-(4-(3-cyano-4-(((3R,4S)-3-fluoro-1-(2-hydroxyacetyl)piperidin-4-yl)oxy)phenyl)pyridin-2-yl)-2-methylcyclopropane-1-carboxamide], the IC50 in assay [1] was 16.5 nM; in assay [2] it was 43.7 nM.
Turning to `N#Cc1cc(-c2ccnc(NC(=O)C3CC3)c2)ccc1CC1CCOCC1` [Example 98, N-(4-(3-cyano-4-((tetrahydro-2H-pyran-4-yl)methyl)phenyl)pyridin-2-yl)cyclopropanecarboxamide], the IC50 in assay [1] and in assay [2] was more than 1000 nM each time.
`N#Cc1cc(-c2ccnc(NC(=O)[C@H]3C[C@H]3F)c2)ccc1O[C@H]1CCN(C(=O)CO)C[C@H]1F` [Example 59, (1R,2R)—N-(4-(3-cyano-4-(((3R,4S)-3-fluoro-1-(2-hydroxyacetyl)piperidin-4-yl)oxy)phenyl)pyridin-2-yl)-2-fluorocyclopropanecarboxamide]: the figures for the IC50 in assay [1] and in assay [2] were 33.8 nM and 39.7 nM, respectively.
On to `Cn1cc(C2CC2C(=O)Nc2cc(-c3ccc(O[C@H]4CCN(C(=O)CO)C[C@H]4F)c(C#N)c3)ccn2)cn1` (stereo partly drawn) [Example 77, N-(4-(3-cyano-4-(((3R,4S)-3-fluoro-1-(2-hydroxyacetyl)piperidin-4-yl)oxy)phenyl)pyridin-2-yl)-2-(1-methyl-1H-pyrazol-4-yl)cyclopropane-1-carboxamide], for which the figures for the IC50 in assay [1] and in assay [2] were 10.3 nM and 24.7 nM, respectively.
The matching figures for `N#Cc1cc(-c2cc(NC(=O)C3CC3)ncn2)ccc1O[C@H]1CCN(C(=O)[C@@H]2COC(=O)N2)CC1(F)F` [Example 155, N-(6-(3-cyano-4-(((S)-3,3-difluoro-1-((S)-2-oxooxazolidine-4-carbonyl)piperidin-4-yl)oxy)phenyl)pyrimidin-4-yl)cyclopropanecarboxamide]: 7 nM and 52.6 nM.
In the same order, the values of `N#Cc1cc(-c2ccnc(NC(=O)[C@H]3C[C@@H]3F)c2)ccc1O[C@H]1CCN(C(=O)CO)C[C@H]1F` [Example 60, (1R,2S)—N-(4-(3-cyano-4-(((3R,4S)-3-fluoro-1-(2-hydroxyacetyl)piperidin-4-yl)oxy)phenyl)pyridin-2-yl)-2-fluorocyclopropanecarboxamide] are 15.7 nM and 46.3 nM.
Take `N#Cc1cc(-c2ccnc(NC(=O)C3C[C@@H]3F)c2)ccc1O[C@H]1CCN(C(=O)CO)C[C@H]1F` (stereo partly drawn) [Example 57, (1,2-trans)-N-(4-(3-cyano-4-(((3R,4S)-3-fluoro-1-(2-hydroxyacetyl)piperidin-4-yl)oxy)phenyl)pyridin-2-yl)-2-fluorocyclopropane-1-carboxamide]: the IC50 in assay [1] turned out to be 17 nM; in assay [2], 26.2 nM.
Consider `N#Cc1cc(-c2ccnc(NC(=O)C3CC3c3c[nH]cn3)c2)ccc1O[C@H]1CCN(C(=O)CO)C[C@H]1F` (stereo partly drawn) [Example 81, N-(4-(3-Cyano-4-(((3R,4S)-3-fluoro-1-(2-hydroxyacetyl)piperidin-4-yl)oxy)phenyl)pyridin-2-yl)-2-(1H-imidazol-4-yl)cyclopropane-1-carboxamide], for which the IC50 in assay [1] stood at 18.8 nM; in assay [2], 47 nM.
The matching figures for `N#Cc1cc(-c2cc(NC(=O)C3CC3)ncn2)ccc1O[C@H]1CCN(C(=O)CCO)CC1(F)F` [Example 154, (S)—N-(6-(3-cyano-4-((3,3-difluoro-1-(3-hydroxypropanoyl)piperidin-4-yl)oxy)phenyl)pyrimidin-4-yl)cyclopropanecarboxamide]: 41.5 nM and 387 nM.
The matching figures for `N#Cc1cc(-c2ccnc(NC(=O)[C@@H]3C[C@@H]3C(N)=O)c2)ccc1O[C@H]1CCN(C(=O)CO)C[C@H]1F` (stereo in doubt) [Example 82, (1,2-cis)-N1-(4-(3-cyano-4-(((3R,4S)-3-fluoro-1-(2-hydroxyacetyl)piperidin-4-yl)oxy)phenyl)pyridin-2-yl)cyclopropane-1,2-dicarboxamide]: 607 nM and 857 nM.
The matching figures for `Cn1cc([C@H]2C[C@@H]2C(=O)Nc2cc(-c3ccc(O[C@H]4CCN(C(=O)CO)C[C@H]4F)c(C#N)c3)ccn2)cn1` [Example 126, (1S,2S)—N-(4-(3-Cyano-4-(((3R,4S)-3-fluoro-1-(2-hydroxyacetyl)piperidin-4-yl)oxy)phenyl)pyridin-2-yl)-2-(1-methyl-1H-pyrazol-4-yl)cyclopropane-1-carboxamide]: 5.7 nM and 14 nM.
On to `N#Cc1cc(-c2ccnc(NC(=O)[C@H]3C[C@@H]3c3cccc(F)c3)c2)ccc1OC1CCOCC1` (relative stereo) [Example 119, (1,2-Trans)-N-(4-(3-cyano-4-((tetrahydro-2H-pyran-4-yl)oxy)phenyl)pyridin-2-yl)-2-(3-fluorophenyl)cyclopropane-1-carboxamide], for which the half-inhibitory concentration (IC50) is 99.3 nM in assay [1] and more than 1000 nM in assay [2].
On to `N#Cc1cc(-c2cc(NC(=O)[C@@H]3C[C@H]3c3cccnc3)ncn2)ccc1O[C@H]1CCN(C(=O)CO)CC1(F)F` [Example 129, (1,2-Trans)-N-(6-(3-cyano-4-(((S)-3,3-difluoro-1-(2-hydroxyacetyl)piperidin-4-yl)oxy)phenyl)pyrimidin-4-yl)-2-(pyridin-3-yl)cyclopropane-1-carboxamide], for which the IC50 in assay [1] was 9.3 nM; in assay [2] it was 32.2 nM.
The matching figures for `N#Cc1cc(-c2ccnc(NC(=O)C3CCCCC3)c2)ccc1OC1CCOCC1` [Example 1, N-(4-(3-cyano-4-((tetrahydro-2H-pyran-4-yl)oxy)phenyl)pyridin-2-yl)cyclohexanecarboxamide]: 755 nM and 331 nM.
In the same order, the values of `N#Cc1cc(-c2ccnc(NC(=O)C3CC34CC4)c2)ccc1OC1CCOCC1` (centres unmarked) [Example 48, N-(4-(3-cyano-4-((tetrahydro-2H-pyran-4-yl)oxy)phenyl)pyridin-2-yl)spiro[2.2]pentane-1-carboxamide] are 268 nM and 512 nM.
The matching figures for `N#Cc1cc(-c2cc(NC(=O)C3CC3)ncn2)ccc1O[C@H]1CCN(C(=O)CO)C[C@H]1F` [Example 19, N-(6-(3-cyano-4-(((3R,4S)-3-fluoro-1-(2-hydroxyacetyl)piperidin-4-yl)oxy)phenyl)pyrimidin-4-yl)cyclopropanecarboxamide]: 15.6 nM and 53.1 nM.
As to `N#Cc1cc(-c2cc(NC(=O)C3CC3)ncn2)ccc1O[C@@H]1CCN(C(=O)CO)CC1(F)F` [Example 110, (R)—N-(6-(3-cyano-4-((3,3-difluoro-1-(2-hydroxyacetyl)piperidin-4-yl)oxy)phenyl)pyrimidin-4-yl)cyclopropanecarboxamide], the IC50 in assay [1] was found to be 317 nM; in assay [2], 737 nM.
The matching figures for `N#Cc1cc(-c2ccnc(NC(=O)C3CC3)c2)ccc1N1CCC[C@H]1CO` [Example 93, (S)—N-(4-(3-cyano-4-(2-(hydroxymethyl)pyrrolidin-1-yl)phenyl)pyridin-2-yl)cyclopropanecarboxamide]: 70.3 nM and 508 nM.
As to `C[C@H]1CCCN1c1ccc(-c2ccnc(NC(=O)C3CC3)c2)cc1C#N` [Example 92, (S)—N-(4-(3-cyano-4-(2-methylpyrrolidin-1-yl)phenyl)pyridin-2-yl)cyclopropanecarboxamide], the IC50 was determined as 20.3 nM in assay [1] and 128 nM in assay [2].

The record behind these values is patent publication US10316049B2, “Tank-binding kinase inhibitor compounds” (Gilead Sciences, Inc., priority 2015, dated 2019).
